Data: ChEMBL document CHEMBL1154822, “Synthesis and antiproliferative activity of 7-azaindirubin-3'-oxime, a 7-aza isostere of the natural indirubin pharmacophore” (J Nat Prod, 2009)

Assays:
Type in all cases: functional
DU-145 [1] = assay: Cytotoxicity against human DU145 cells assessed as cell growth at 1 uM after 1 to 11 days by MTT assay; details: read-out: Activity
UACC-62 = assay: Cytotoxicity against human UACC62 cells assessed as cell growth at 10 uM after 1 to 11 days by MTT assay; details: read-out: Activity
OVCAR-5 = assay: Cytotoxicity against human OVCAR5 cells assessed as cell growth at 10 uM after 1 to 11 days by MTT assay; details: read-out: Activity
SK-OV-3 [2] = assay: Cytotoxicity against human SKOV3 cells assessed as cell growth at 10 uM after 1 to 11 days by MTT assay; details: read-out: Activity
SN12C = assay: Cytotoxicity against human SN12C cells assessed as cell growth at 10 uM after 1 to 11 days by MTT assay; details: read-out: Activity
BT-549 [3] = assay: Cytotoxicity against human BT549 cells assessed as cell growth at 1 uM after 1 to 11 days by MTT assay; details: read-out: Activity
SR = assay: Cytotoxicity against human SR cells assessed as cell growth at 10 uM after 1 to 11 days by MTT assay; details: read-out: Activity
HOP-92 [4] = assay: Cytotoxicity against human HOP92 cells assessed as cell growth at 10 uM after 1 to 11 days by MTT assay; details: read-out: Activity
NCI-H522 = assay: Cytotoxicity against human NCI-H522 cells assessed as cell growth at 10 uM after 1 to 11 days by MTT assay; details: read-out: Activity
HT-29 [5] = assay: Cytotoxicity against human HT-29 cells assessed as cell growth at 10 uM after 1 to 11 days by MTT assay; details: read-out: Activity
SK-MEL-5 = assay: Cytotoxicity against human SK-MEL-5 cells assessed as cell growth at 100 uM after 1 to 11 days by MTT assay; details: read-out: Activity
DU-145 [6] = assay: Cytotoxicity against human DU145 cells assessed as cell growth at 10 uM after 1 to 11 days by MTT assay; details: read-out: Activity
MOLT-4 [7] = assay: Cytotoxicity against human MOLT4 cells assessed as cell growth at 100 uM after 1 to 11 days by MTT assay; details: read-out: Activity
OVCAR-8 = assay: Cytotoxicity against human OVCAR8 cells assessed as cell growth at 100 uM after 1 to 11 days by MTT assay; details: read-out: Activity
ACHN = assay: Cytotoxicity against human ACHN cells assessed as cell growth at 100 uM after 1 to 11 days by MTT assay; details: read-out: Activity
PC-3 [8] = assay: Cytotoxicity against human PC3 cells assessed as cell growth at 100 uM after 1 to 11 days by MTT assay; details: read-out: Activity
[9] = Cytotoxicity against human Hs 578T cells assessed as cell growth at 100 uM after 1 to 11 days by MTT assay; details: read-out: Activity
MDA-MB-468 [10] = assay: Cytotoxicity against human MDA-MB-468 cells assessed as cell growth at 100 uM after 1 to 11 days by MTT assay; details: read-out: Activity
COLO 205 = assay: Cytotoxicity against human COLO205 cells assessed as cell growth at 1 mM after 1 to 11 days by MTT assay; details: read-out: Activity
HT-29 [11] = assay: Cytotoxicity against human HT-29 cells assessed as cell growth at 1 mM after 1 to 11 days by MTT assay; details: read-out: Activity
K562 = assay: Cytotoxicity against human K562 cells after 1 to 11 days by MTT assay
MOLT-4 [12] = assay: Cytotoxicity against human MOLT4 cells after 1 to 11 days by MTT assay
HOP-92 [13] = assay: Cytotoxicity against human HOP92 cells after 1 to 11 days by MTT assay
HT-29 [14] = assay: Cytotoxicity against human HT-29 cells after 1 to 11 days by MTT assay
LOX IMVI = assay: Cytotoxicity against human LOXIMVI cells after 1 to 11 days by MTT assay
U-251 [15] = assay: Cytotoxicity against human U251 cells assessed as cell growth at 1 mM after 1 to 11 days by MTT assay; details: read-out: Activity
SK-OV-3 [16] = assay: Cytotoxicity against human SKOV3 cells assessed as cell growth at 1 mM after 1 to 11 days by MTT assay; details: read-out: Activity
786-0 [17] = assay: Cytotoxicity against human 786-0 cells assessed as cell growth at 1 mM after 1 to 11 days by MTT assay; details: read-out: Activity
TK-10 = assay: Cytotoxicity against human TK10 cells assessed as cell growth at 1 mM after 1 to 11 days by MTT assay; details: read-out: Activity
PC-3 [18] = assay: Cytotoxicity against human PC3 cells assessed as cell growth at 1 mM after 1 to 11 days by MTT assay; details: read-out: Activity
MDA-MB-468 [19] = assay: Cytotoxicity against human MDA-MB-468 cells assessed as cell growth at 1 mM after 1 to 11 days by MTT assay; details: read-out: Activity
T47D = assay: Cytotoxicity against human T47D cells after 1 to 11 days by MTT assay
MOLT-4 [20] = assay: Cytotoxicity against human MOLT4 cells assessed as cell growth at 0.1 uM after 1 to 11 days by MTT assay; details: read-out: Activity
U-251 [21] = assay: Cytotoxicity against human U251 cells assessed as cell growth at 0.1 uM after 1 to 11 days by MTT assay; details: read-out: Activity
M14 = assay: Cytotoxicity against human M14 cells assessed as cell growth at 0.1 uM after 1 to 11 days by MTT assay; details: read-out: Activity
SK-MEL-28 = assay: Cytotoxicity against human SK-MEL-28 cells assessed as cell growth at 0.1 uM after 1 to 11 days by MTT assay; details: read-out: Activity
NCI-H226 [22] = assay: Cytotoxicity against human NCI-H226 cells assessed as cell growth at 0.1 uM after 1 to 11 days by MTT assay; details: read-out: Activity
KM12 = assay: Cytotoxicity against human KM12 cells assessed as cell growth at 0.1 uM after 1 to 11 days by MTT assay; details: read-out: Activity
786-0 [23] = assay: Cytotoxicity against human 786-0 cells assessed as cell growth at 0.1 uM after 1 to 11 days by MTT assay; details: read-out: Activity
BT-549 [24] = assay: Cytotoxicity against human BT549 cells assessed as cell growth at 0.1 uM after 1 to 11 days by MTT assay; details: read-out: Activity
RPMI-8226 = assay: Cytotoxicity against human RPMI8226 cells assessed as cell growth at 1 uM after 1 to 11 days by MTT assay; details: read-out: Activity
NCI-H226 [25] = assay: Cytotoxicity against human NCI-H226 cells assessed as cell growth at 1 uM after 1 to 11 days by MTT assay; details: read-out: Activity
SF-268 = assay: Cytotoxicity against human SF268 cells assessed as cell growth at 1 uM after 1 to 11 days by MTT assay; details: read-out: Activity
Malme-3M = assay: Cytotoxicity against human MALME-3M cells assessed as cell growth at 1 uM after 1 to 11 days by MTT assay; details: read-out: Activity
[26] = read-out: LC50 (the source's name)

In the case of `O=C1Nc2ncccc2/C1=C1/Nc2ccccc2/C1=N\O`, the growth at 1 µM (DU-145 [1]) is reported as 102%, the growth at 10 µM (UACC-62) is reported as 77% and the growth at 10 µM (OVCAR-5) is reported as 94%. The growth at 10 µM (SK-OV-3 [2]) was 69%, the growth at 10 µM (SN12C) was 81% and the growth at 1 µM (BT-549 [3]) was 70%. It also gave a growth at 10 µM (SR) of 147%, a growth at 10 µM (HOP-92 [4]) of 62% and a growth at 10 µM (NCI-H522) of 99%. It also gave a growth at 10 µM (HT-29 [5]) of 99%, a growth at 100 µM (SK-MEL-5) of 49% and a growth at 10 µM (DU-145 [6]) of 84%. The growth at 100 µM (MOLT-4 [7]) was 26%, the growth at 100 µM (OVCAR-8) was 50% and the growth at 100 µM (ACHN) was 21%. For the same compound, the growth at 100 µM (PC-3 [8]) was 44%, the growth at 100 µM [9] was 4% and the growth at 100 µM (MDA-MB-468 [10]) was 18%. For the same compound, the growth at 1000 µM (COLO 205) was 23%, the growth at 1000 µM (HT-29 [11]) was 48% and the GI50 (K562) was 3.84 µM. The TGI (K562) was > 100 µM, the CC50 (K562; [26]) was > 100 µM and the GI50 (MOLT-4 [12]) was 2.99 µM. The TGI (MOLT-4 [12]) was > 100 µM, the CC50 (MOLT-4 [12]; [26]) was > 100 µM and the GI50 (HOP-92 [13]) was 2.97 µM. The TGI (HOP-92 [13]) was > 100 µM, the CC50 (HOP-92 [13]; [26]) was > 100 µM and the GI50 (HT-29 [14]) was 88.8 µM. For the same compound, the TGI (HT-29 [14]) was > 100 µM, the CC50 (HT-29 [14]; [26]) was > 100 µM and the GI50 (LOX IMVI) was 5.17 µM. The TGI (LOX IMVI) was > 100 µM, the CC50 (LOX IMVI; [26]) was > 100 µM and the growth at 1000 µM (U-251 [15]) was 68%. The growth at 1000 µM (SK-OV-3 [16]) was 8%, the growth at 1000 µM (786-0 [17]) was 39% and the growth at 1000 µM (TK-10) was 14%. For the same compound, the growth at 1000 µM (PC-3 [18]) was 45%, the growth at 1000 µM (MDA-MB-468 [19]) was 13% and the GI50 (T47D) was 2.03 µM. The TGI (T47D) was > 100 µM, the CC50 (T47D; [26]) was > 100 µM and the growth at 0.1 µM (MOLT-4 [20]) was 92%. It also gave a growth at 0.1 µM (U-251 [21]) of 97%, a growth at 0.1 µM (M14) of 95% and a growth at 0.1 µM (SK-MEL-28) of 88%. For the same compound, the growth at 0.1 µM (NCI-H226 [22]) was 86%, the growth at 0.1 µM (KM12) was 95% and the growth at 0.1 µM (786-0 [23]) was 119%. The growth at 0.1 µM (BT-549 [24]) was 89%, the growth at 1 µM (RPMI-8226) was 80% and the growth at 1 µM (NCI-H226 [25]) was 84%. It also gave a growth at 1 µM (SF-268) of 99% and a growth at 1 µM (Malme-3M) of 89%.
